Legend:
[1] = test system: HCT116 human colorectal carcinoma; experiment: Cell Proliferation Assay (CellTiter-Glo), HCT116; type: cell-based; conditions: HCT-116, HCT116 cell line, 72 h exposure
Description: Compounds are tested in a cell proliferation assay using the following cell lines:
(§1) HCT116 human colorectal carcinoma (ATCC)
(§2) Both cell lines are maintained in DMEM/F12 (1:1) media (Gibco) supplemented with 10% FCS at 37° C. in a 5% CO2 humidified incubator.
Cells are seeded in 96-well plates at 2,000 cells/well and after 24 hours they are exposed to different concentrations of compounds in 0.83% DMSO. Cells are grown for a further 72 h, and an equal volume of CellTiter-Glo reagent (Promega) is added to each well. This lyses the cells and generates a luminescent signal proportional to the amount of ATP released (and therefore proportional to the number of cells in the well) that can be detected using a multi-well luminometer.
The EC50 is defined as the concentration at which a given compound achieves 50% inhibition of control. IC50 values are calculated using the XLfit software package (version 2.0.5).

phospho-ERK = experiment: Phospho-ERK Cell-Based Assay (ELISA), HCT116; conditions: Homo sapiens, HCT-116; HCT116 cell line, 2 h or 24 h exposure
Description: Phospho-ERK Cell-Based Assay
Compounds are tested in a cell-based phospho-ERK ELISA using the following cell lines:
as §1, §2
Cells are seeded in 96-well plates at 2,000 cells/well and after 24 h they are exposed to different concentrations of compounds in 0.83% DMSO. Cells are grown for a further 2 h or 24 h, fixed with formaldehyde (2% final) and permeabilised with methanol. Following blocking with TBST-3% BSA, fixed cells are incubated with primary antibody (anti-phospho ERK from rabbit) over-night at 4° C. Cells are incubated with Propidium Iodide (DNA fluorescent dye) and detection of cellular p-ERK is performed using an anti-rabbit secondary antibody conjugated to the fluorescent Alexa Fluor 488 dye (Molecular probes). The fluorescence is analysed using the Acumen Explorer (TTP Labtech), a laser-scanning microplate cytometer, and the Alexa Fluor 488 signal is normalised to the PI signal (proportional to cell number).
The EC50 is defined as the concentration at which a given compound achieves a signal half way between the baseline and the maximum response. EC50 values are calculated using the XLfit software package (version 2.0.5).

Question: Which results are given for `C[C@H](O)CONC(=O)c1ccn2cncc2c1Nc1ccc(Br)cc1F` [Example 12, 8-(4-Bromo-2-fluoro-phenylamino)-imidazo[1,5-a]pyridine-7-carboxylic acid ((S)-2-hydroxy-propoxy)-amide]?
Answer: EC50 [1]: < 100 nM; EC50 (phospho-ERK): < 200 nM
